# Reference: US20030073731A1, “Compositions and methods of the use thereof achiral analogues of CC-1065 and the duocarmycins” (priority 2000, published 2003)
# Like-named read-outs stand apart in the source and are kept apart here.
# Key:
# MOLT-4 = assay: cells; settings: Homo sapiens
# SN12C = assay: cells; settings: Homo sapiens
# SF-539 = assay: cells; settings: Homo sapiens
# NCI-H522 [1] = assay: cells; settings: Homo sapiens
# SF-268 = assay: cells; settings: Homo sapiens
# HOP-62 = assay: cells; settings: Homo sapiens
# SK-MEL-2 = assay: cells; settings: Homo sapiens
# HCT-15 = assay: cells; settings: Homo sapiens
# [2] = test system: K562 human chronic myeloid leukemia cells; assay: cells; type: cell-based
# Procedure: The cytotoxicity was determined using a MTT tetrazolium dye assay (42). […] The incubation was terminated by centrifugation (5 minutes, 300 g) and the cells were washed once with drug-free medium. Following the appropriate drug treatment, the cells were transferred to 96-well microtitre plates, 10^4 cells per well, 8 wells per sample. Plates were then kept in the dark at 37° C. in a humidified atmosphere containing 5% CO2. […] Following incubation of the plates for 4 days (to allow control cells to increase in number by 10 fold) 20 μL of a 5 mg/mL solution of MTT in phosphate buffered saline was added to each well and the plates further incubated for 5 hours. The plates were then centrifuged for 5 minutes at 300 g and the bulk of the medium pipetted from the cell pellet leaving 10-20 μL per well. 200 μL DMSO was added to each well and the samples agitated to ensure complete mixing. The optical density was the read at a wavelength of 550 nm on a Titertek Multiscan ELISA plate reader, and the dose-response curve was constructed.
# CAKI-1 = assay: cells; settings: Homo sapiens
# NCI-H23 = assay: cells; settings: Homo sapiens
# HL-60 (TB) = assay: NCI in-vitro cytotoxicity screen, Leukemia panel; type: cell-based, human
# Procedure: The compounds of this invention were also tested against the panel of 60 human cancer cell lines at the National Cancer Institute, Bethesda, Md. […] The cytotoxicity studies were conducted using a 48 hour exposure, and measuring the optical density of sulforhodamine B-derived color.
# BT-549 = assay: cells; settings: Homo sapiens
# A549/ATCC = assay: cells; settings: Homo sapiens, A549, read-out: LC50
# EKVX = assay: cells; settings: Homo sapiens
# OVCAR-8 = assay: cells; settings: Homo sapiens
# RPMI-8226 = assay: cells; settings: Homo sapiens
# OVCAR-4 = type: cell-based, human
# NCI-H522 [3] = test system: NCI-H522
# OVCAR-5 = type: cell-based, human
compound,measurement,setting,value
"COC(=O)c1[nH]c2c(O)cc(NC(=O)c3cc4cc(OC)c(OC)c(OC)c4[nH]3)c(CCCl)c2c1C(=O)OC [Compound 22, Dimethyl 4-(2-chloroethyl)-7-hydroxy-5-(5,6,7-trimethoxyindole-2-carboxamido)indole-2,3-dicarboxylate]",GI50,MOLT-4; MOLT-4,10.5 nM
same,CC50,"MOLT-4; MOLT-4, read-out: LC50",> 50000 nM
same,GI50,SN12C,179 nM
same,CC50,SN12C; read-out: LC50,> 50000 nM
same,GI50,SF-539; SF-539,80.4 nM
same,CC50,"SF-539; SF-539, read-out: LC50",608 nM
same,GI50,NCI-H522 [1]; NCI-H522,57.7 nM
same,CC50,"NCI-H522 [1]; NCI-H522, read-out: LC50",373 nM
same,GI50,SF-268; SF-268,13.8 nM
same,CC50,"SF-268; SF-268, read-out: LC50",1170 nM
same,GI50,HOP-62; HOP-62,91.4 nM
same,CC50,"HOP-62; HOP-62, read-out: LC50",8510 nM
same,GI50,SK-MEL-2; SK-MEL-2,83.9 nM
same,CC50,"SK-MEL-2; SK-MEL-2, read-out: LC50",339 nM
same,GI50,HCT-15; HCT-15,259 nM
same,CC50,"HCT-15; HCT-15, read-out: LC50",> 50000 nM
same,IC50,[2]; 1 hour exposure,310 ± 220 nM
same,IC50,"[2]; 72 h, continuous exposure (3 days)",250 ± 96 nM
same,GI50,CAKI-1; CAKI-1,147 nM
same,CC50,"CAKI-1; CAKI-1, read-out: LC50",> 50000 nM
same,GI50,NCI-H23; NCI-H23,67.5 nM
same,CC50,"NCI-H23; NCI-H23, read-out: LC50",> 50000 nM
same,Percent Growth,"HL-60 (TB); HL-60 (TB), Log10 Concentration −4.3",3%
same,Percent Growth,"HL-60 (TB); HL-60 (TB), Log10 Concentration −5.3",9%
same,CC50,"HL-60 (TB); Homo sapiens, HL-60, read-out: LC50",> 50000 nM
same,GI50,"HL-60 (TB); Homo sapiens, HL-60 (TB)",60.4 nM
same,GI50,BT-549; BT-549,329 nM
same,CC50,"BT-549; BT-549, read-out: LC50",> 50000 nM
same,CC50,A549/ATCC,< 50000 nM
same,GI50,EKVX,164 nM
same,CC50,EKVX; read-out: LC50,3250 nM
same,GI50,OVCAR-8; OVCAR-8,70.9 nM
same,CC50,"OVCAR-8; OVCAR-8, read-out: LC50",1760 nM
same,GI50,RPMI-8226; RPMI-8226,190 nM
same,CC50,"RPMI-8226; RPMI-8226, read-out: LC50",> 50000 nM
4-(2-Chloroethyl)-3-[5-(5-benzofuran-2-carboxamido)indole-2-carboxamido]phenol [Compound 1],GI50,NCI-H332M,2830 nM
same,TGI,NCI-H332M,9.60E-06 Molar
same,GI50,SF-295,2320 nM
same,TGI,SF-295,6.46E-06 Molar
same,GI50,K-562,2880 nM
same,TGI,K-562,9.59E-06 Molar
same,GI50,UO-31,3000 nM
same,TGI,UO-31,6.38E-06 Molar
same,GI50,OVCAR-4,2390 nM
same,TGI,OVCAR-4,5.06E-06 Molar
same,GI50,MDA-MB-231/ATCC,2430 nM
same,TGI,MDA-MB-231/ATCC,7.10E-06 Molar
same,Percent Growth,MDA-MB-231/ATCC; Log10 Concentration (Molar) −4.0,−65%
same,Percent Growth,MDA-MB-231/ATCC; Log10 Concentration (Molar) −6.0,92%
same,Percent Growth,MDA-MB-231/ATCC; Log10 Concentration (Molar) −7.0,97%
same,Percent Growth,MDA-MB-231/ATCC; Log10 Concentration (Molar) −8.0,94%
same,GI50,KM12,18800 nM
same,TGI,KM12,3.50E-05 Molar
same,GI50,NCI-H522 [3],933 nM
same,TGI,NCI-H522 [3],3.00E-06 Molar
same,GI50,TK-10,2450 nM
same,TGI,TK-10,5.85E-06 Molar
same,GI50,MDA-N,2280 nM
same,TGI,MDA-N,5.47E-06 Molar
same,GI50,UACC-257,1880 nM
same,TGI,UACC-257,3.40E-06 Molar
same,GI50,SW-620,2010 nM
same,TGI,SW-620,8.19E-06 Molar
same,GI50,SK-OV-3,2930 nM
same,TGI,SK-OV-3,7.66E-06 Molar
same,GI50,MDA-MB-435,1890 nM
same,TGI,MDA-MB-435,3.75E-06 Molar
same,GI50,OVCAR-5,2280 nM
same,TGI,OVCAR-5,5.80E-06 Molar
